Laboratory results reported in the RepoRT retention time repository (doi:10.1021/acs.analchem.2c02893).

Test: RP, Thermo Scientific Acclaim RSLC 120 C18, 100 × 2.1 mm, 2.2 µm, 30 °C, 0.2 mL/min, estimated dead time 1.1 min; A: 90% water + 10% methanol + 0.01% formic acid + 5 mM ammonium formate, pH 3.61; B: methanol + 0.01% formic acid + 5 mM ammonium formate, pH 3.61; gradient (min/%B) 0/1 1/1 2/39 13/99.9 15/99.9 15.1/1 20.1/1
Settings: stereoisomer not certain

In the case of `CCCCCn1cc(C(=O)Nc2ccccc2)c2ccccc21` [SDB-006 N-phenyl], the LC retention time is reported as 11.3 min.
Compound `O=C(NC(=O)c1c(F)cccc1F)Nc1cc(Cl)c(Oc2ncc(C(F)(F)F)cc2Cl)c(Cl)c1` [Chlorfluazuron] has an LC retention time of 13.2 min.
Work on `CCCCC1(COC(=O)CCC(=O)O)C(=O)N(c2ccccc2)N(c2ccccc2)C1=O` [Suxibuzone] yielded an LC retention time of 9.61 min.
`COCCCCC(=NOCCN)c1ccc(C(F)(F)F)cc1` [Fluvoxamine] gave an LC retention time of 8.28 min.
Work on `CCCCCn1cc(C(=O)c2ccc(OC)c3ccccc23)c2ccccc21` [JWH-081] yielded an LC retention time of 12.7 min.
Compound `NNCCc1ccccc1` [Phenelzine] has an LC retention time of 3.71 min.
`O=C(c1cccc2ccccc12)c1cn(CC2CCCCC2)c2ccccc12` [NE-CHMIMO] gave an LC retention time of 13 min.
In the case of `COc1ccc2[nH]cc(CCNC(C)=O)c2c1` [Melatonin], the LC retention time is reported as 5.36 min.
For `OCCOCCN1CCN(C2=Nc3ccc(O)cc3Sc3ccccc32)CC1` [Quetiapine-Hydroxy], the LC retention time was 4.99 min.
With `Cc1cc(C(C)(C)C)cc(C)c1CC1=NCCN1` [Xylometazoline] the LC retention time was 7.75 min.
`CNC(=O)ON=CC(C)(C)S(C)(=O)=O` [Aldicarb-sulfone (Aldoxycarb)] gave an LC retention time of 3.75 min.
For `CC(C)(C)NCC(O)COc1ccc(NC(=O)NC2CCCCC2)cc1` (stereo not drawn) [Talinolol], the LC retention time was 6.58 min.
With `CCOC(=O)Nc1cccc(OC(=O)Nc2ccccc2)c1` [Medipham-Desmethyl (desmedipham)] the LC retention time was 8.57 min.
For `CCCSc1ccc2nc(NC(=O)OC)[nH]c2c1` [Albendazole], the LC retention time was 9.19 min.
For `O=S1(=O)OCC2C(CO1)C1(Cl)C(Cl)=C(Cl)C2(Cl)C1(Cl)Cl` (stereo not drawn) [Endosulfan-sulfate], the LC retention time was 11.1 min.
Compound `CC(CCc1ccc(O)cc1)NCCc1ccc(O)c(O)c1` (stereo not drawn) [Dobutamine] has an LC retention time of 4.21 min.
With `CC1(C)OC2CC3C4CCC5=CC(=O)CCC5(C)C4(F)C(O)CC3(C)C2(C(=O)CCl)O1` (stereo not drawn) [Halcinonide] the LC retention time was 10.8 min.
For `CCCCCCCCCCN(C)C` [N,N-Dimethyldecylamine], the LC retention time was 8.59 min.
In the case of `CCNc1nc(NC(C)C)nc(OC)n1` [Atraton], the LC retention time is reported as 7.81 min.
`CC(C)[N+]1(C)C2CCC1CC(OC(=O)C(CO)c1ccccc1)C2` (stereo not drawn) [Ipratropium] gave an LC retention time of 4.17 min.
For `Clc1cccc(N2CCNCC2)c1` [Chlorophenylpiperazine (meta-)<U+00A0>(mCPP)], the LC retention time was 5.42 min.
`Cc1c(F)c(F)c(COC(=O)C2C(C=C(Cl)C(F)(F)F)C2(C)C)c(F)c1F.Cc1c(F)c(F)c(COC(=O)C2C(C=C(Cl)C(F)(F)F)C2(C)C)c(F)c1F` (stereo not drawn) [Tefluthrin] gave an LC retention time of 13.4 min.
In the case of `Nc1ccc(S(=O)(=O)O)c(N)c1` [2,4-Diaminobenzenesulfonic acid], the LC retention time is reported as 1.36 min.
With `CN1CCC(N(Cc2ccccc2)c2ccccc2)CC1` [Bamipine] the LC retention time was 7.77 min.
Work on `NCC(O)c1cccc(O)c1` (stereo not drawn) [Fenefrine-Nor] yielded an LC retention time of 1.81 min.
Work on `CC(F)CCCn1cc(C(=O)C2C(C)(C)C2(C)C)c2ccccc21` (stereo not drawn) [XLR-11 Isomer] yielded an LC retention time of 11.6 min.
For `CCOc1ccc(NC(=O)CC(C)O)cc1` (stereo not drawn) [Bucetin], the LC retention time was 6.27 min.
With `CCCCn1cc(C(=O)c2cccc3ccccc23)c2cccc(O)c21` [JWH-073-M-7-OH-Ind] the LC retention time was 11.2 min.
For `CCn1nc(C(=O)O)c(=O)c2cc3c(cc21)OCO3` [Cinoxacin], the LC retention time was 5.32 min.
Work on `CCCCN1CC(=O)N2C(Cc3c([nH]c4ccccc34)C2c2ccc3c(c2)OCO3)C1=O` (stereo not drawn) [Tadalafil-n-Butyl] yielded an LC retention time of 10.2 min.
For `Cc1c(COC(=O)C2C(C=C(Cl)C(F)(F)F)C2(C)C)cccc1-c1ccccc1` (stereo not drawn) [Bifenthrin], the LC retention time was 14.1 min.
Compound `CNC(C)Cc1ccc(O)c(OC)c1` (stereo not drawn) [HMMA] has an LC retention time of 3.19 min.
`N#Cc1ccc2c(c1)N(CCCN1CCC(O)CC1)c1ccccc1S2` [Periciazine] gave an LC retention time of 7.45 min.
`CCCCCn1nc(C(=O)NC(C(N)=O)C(C)(C)C)c2ccccc21` (stereo not drawn) [ADB-PINACA] gave an LC retention time of 11.2 min.
Work on `CNC(=O)ON=CC(C)(C)SC` [Aldicarb] yielded an LC retention time of 6.17 min.
Compound `CCCCNC(=O)NS(=O)(=O)c1ccc(C)cc1` [Tolbutamide] has an LC retention time of 7.68 min.
In the case of `CCCCCCCCCCCC(=O)NCC(C)O` (stereo not drawn) [Lauric isopropanolamide], the LC retention time is reported as 12.1 min.
Work on `C=C1CC23CC1(O)CCC2C12C=CC(O)C(C)(C(=O)O1)C2C3C(=O)O` (stereo not drawn) [Gibberellic acid] yielded an LC retention time of 4.91 min.
For `Cc1ccc(C2(c3ccccc3)NC(=O)NC2=O)cc1` (stereo not drawn) [MPPH (5-(p-Methylphenyl)-5-phenylhydantoin)], the LC retention time was 8.12 min.
Work on `CNS(=O)(=O)Cc1ccc2[nH]cc(CCN(C)C)c2c1` [Sumatriptan] yielded an LC retention time of 3.43 min.
`Cc1cc(N(C)C)nc(Cl)n1` [Crimidine] gave an LC retention time of 6.2 min.
`O=Cc1ccccc1Nc1ccccc1Cl` [2-(2-(Chlorophenyl)amino)benzaldehyde] showed an LC retention time of 11.4 min.
In the case of `CCCCN(CCCC)SN(C)C(=O)Oc1cccc2c1OC(C)(C)C2` [Carbosulfan], the LC retention time is reported as 13.8 min.
`CCCC(NC)C(=O)c1ccc2c(c1)OCO2` (stereo not drawn) [Pentylone] gave an LC retention time of 4.99 min.
`CCCCCn1c2ccccc2c2cc(C(=O)c3cccc4ccccc34)ccc21` [EG-018] gave an LC retention time of 14.2 min.
`OCc1nnc2n1-c1ccc(Cl)cc1C(c1ccccc1)=NC2` [Alprazolam- alpha-Hydroxy] showed an LC retention time of 8.11 min.
In the case of `CCNc1nc(NC(C)CC)nc(OC)n1` (stereo not drawn) [Secbumeton], the LC retention time is reported as 8.79 min.
`CCCC(NC)C(=O)c1ccccc1` (stereo not drawn) [Pentedrone] gave an LC retention time of 4.89 min.
Compound `CCOC(=O)C(C)(C)Oc1ccc(Cl)cc1` [Clofibrate] has an LC retention time of 11 min.
Work on `CN(CCOc1ccc(CC2SC(=O)NC2=O)cc1)c1ccccn1` (stereo not drawn) [Rosiglitazone] yielded an LC retention time of 6.98 min.
Compound `CCCOc1nc2ccc(I)cc2c(=O)n1CCC` [Proquinazid] has an LC retention time of 13.3 min.
With `CCN(CC)C(=O)C(C#N)=Cc1cc(O)c(O)c([N+](=O)[O-])c1` [Entacapon] the LC retention time was 6.89 min.
`O=c1oc2ccccc2c(O)c1C1CC(c2ccc(-c3ccc(Br)cc3)cc2)Cc2ccccc21` (stereo not drawn) [Brodifacoum] showed an LC retention time of 13 min.
Compound `CN1C(=O)CN=C(c2ccccc2)c2cc(Cl)ccc21` [Diazepam] has an LC retention time of 9.53 min.
`O=C(CC1NCCCC1O)Cn1cnc2cc(Br)c(Cl)cc2c1=O` (stereo not drawn) [Halofuginone] gave an LC retention time of 6.76 min.
`c1ccc(Nc2ccccc2)cc1` [Diphenylamine] gave an LC retention time of 10.1 min.
Compound `C#CCN1C(=O)COc2cc(F)c(N3C(=O)C4=C(CCCC4)C3=O)cc21` [Flumioxazin] has an LC retention time of 8.73 min.
`C#CC1(OC(C)=O)CCC2C3CCC4=CC(=O)CCC4C3CCC21C` (stereo not drawn) [Norethisterone acetate] gave an LC retention time of 10.8 min.
`CNC(=O)N(C)c1nnc(C(C)(C)C)s1` [Tebuthiuron] showed an LC retention time of 7.25 min.
Work on `CCCCCCCCCCCCCC(=O)NCCC[N+](C)(C)CCCS(=O)(=O)O` [Amidosulfobetaine-14] yielded an LC retention time of 15 min.
Compound `OC(Cc1ccccc1Cl)(Cn1[nH]cnc1=S)C1(Cl)CC1` (stereo not drawn) [Prothioconazole] has an LC retention time of 11.2 min.
`NC1Cc2ccc(I)cc2C1` (stereo not drawn) [5-Iodo-2-aminoindane (5-IAI)] gave an LC retention time of 5.87 min.
Compound `CNC(=O)Nc1nc2ccccc2s1` [Benzthiazuron] has an LC retention time of 7.13 min.
Work on `CC1NCCOC1c1ccccc1` (stereo not drawn) [Phenmetrazine] yielded an LC retention time of 4.14 min.
For `CC(C)CC(N(C)C)C1(c2ccc(Cl)cc2)CCC1` (stereo not drawn) [Sibutramine], the LC retention time was 8.66 min.
`CC1(C)C(C=CC(=O)OC(C(F)(F)F)C(F)(F)F)C1C(=O)OC(C#N)c1cccc(Oc2ccccc2)c1` (stereo not drawn) [Acrinathrin] showed an LC retention time of 9.17 min.
Compound `CN1CCN(CCCN2c3ccccc3Sc3ccc(Cl)cc32)CC1` [Prochlorperazine] has an LC retention time of 9.89 min.
For `CCC(=C(c1ccc(O)cc1)c1ccc(OCCN(C)C)cc1)c1ccccc1` [4-Hydroxytamoxifen], the LC retention time was 9.1 min.
With `Cc1nnc(NS(=O)(=O)c2ccc(N)cc2)s1` [Sulfamethizole] the LC retention time was 4.21 min.
In the case of `CC(N)Cc1ccc2[nH]ccc2c1` (stereo not drawn) [5-(2-Aminopropyl)indole (5-API)], the LC retention time is reported as 4.07 min.
In the case of `CC(C)C(=O)C1(C(=O)Nc2ccccc2)OC1(C(=O)c1ccc(F)cc1)c1ccccc1` (stereo not drawn) [Atorvastatin IMP D (epoxide)], the LC retention time is reported as 10.3 min.
`Cc1[nH]oc(=O)c1N=Nc1ccccc1Cl` [Drazoxolon] gave an LC retention time of 10.3 min.
Work on `CC1CC2C(C(O)CC3(C)C2CCC3(O)C(=O)CO)C2(C)C=CC(=O)C=C12` (stereo not drawn) [Prednisolone-Methyl] yielded an LC retention time of 8.75 min.
`COCCCNc1nc(NC(C)C)nc(SC)n1` [Methoprotryne] gave an LC retention time of 9.14 min.
`CCc1cc2c(cc1CC)CC(NCC(O)c1ccc(O)c3[nH]c(=O)ccc13)C2` (stereo not drawn) [Indacaterol] gave an LC retention time of 7.9 min.
`CNC(=C[N+](=O)[O-])NCCSCc1ccc(CN(C)C)o1` [Ranitidine] showed an LC retention time of 3.14 min.
In the case of `CC(C)NCC(O)COc1ccc(CC(=O)O)cc1` (stereo not drawn) [Atenolol acid (Metoprolol acid)], the LC retention time is reported as 3.93 min.
With `CC(C)(C)c1ccc(C(O)CCCN2CCC(C(O)(c3ccccc3)c3ccccc3)CC2)cc1` (stereo not drawn) [Terfenadine] the LC retention time was 9.69 min.
Work on `CNC(C)C(=O)c1ccc2c(c1)OCO2` (stereo not drawn) [Methylone (MDMC)] yielded an LC retention time of 3.81 min.
For `Nc1ccc2c(c1)C(c1ccccc1Cl)=NCC(=O)N2` [Clonazepam- 7-Amino], the LC retention time was 4.86 min.
For `CCCCCn1cc(C(=O)c2ccc(CC)c3ccccc23)c2ccccc21` [JWH-210], the LC retention time was 13.2 min.
Compound `CC=C(C)C(=O)OC1CC(OC(C)=O)C2(C(=O)OC)COC3C2C12COC(O)(C(=O)OC)C2C(C)(C12OC1(C)C1CC2OC2OC=CC21O)C3O` (stereo not drawn) [Azadirachtin] has an LC retention time of 7.56 min.
With `CCCCCn1nc(C(=O)NC(C)(C)c2ccccc2)c2ccccc21` [Cumyl-PINACA] the LC retention time was 12.5 min.
